Measured values taken from US12083165B2, “Thymosin alpha 1 for use in treatment of cystic fibrosis” (SciClone Pharmaceuticals International (SG) PTE. LTD., priority 2015, dated 2024).

What was measured:
Assay type in all cases: in vivo
[1] = test system: A. fumigatus-infected C57BL/6 and Cftr−/− mice; assay: IL-1 cytokine levels in BAL by ELISA in CF mice with aspergillosis; settings: 200 μg/kg/i.p. daily 6 days, 7 days post-infection
Experimental: (§1) Mice. Wild-type (WT) inbred C57BL6 mice, 8 to 12 weeks old, were purchased from Charles River Breeding Laboratories (Calco, Italy). Genetically engineered homozygote Cftr^−/− mice (33) were bred at the Cystic Fibrosis core animal facility at San Raffaele Hospital, Milan, Italy. Experiments were performed following protocols approved by the institutional animal committee and in accordance with European Economic Community Council Directive as well as institutional animal care and use guidelines.
(§2) Infection and treatments. Mice were anesthetized by i.p. injection of 2.5% avertin (Sigma Chemical Co, St. Louis, MO) before intranasal instillation of 2×10^7 A. fumigatus (Af293) resting conidia/20 μl saline. For histology, paraffin-embedded tissue were stained with Periodic acid-Schiff (PAS), and BAL fluid collection was done as described (21, 22). Treatments were as follow: Tα1 and the scrambled polypeptide were supplied as purified (the endotoxin levels were <0.03 pg/ml, by a standard limulus lysate assay) sterile, lyophilized, acetylated polypeptide. The sequences were as follows: Ac-[…]O (Tα1) (SEQ ID NO:1) and Ac-[…]OH (scrambled peptide) (SEQ ID NO:2). The lyophilized powders were reconstituted in sterile water and 200 μg/kg/i.p. were given daily for 6 consecutive days beginning the day of the infection.
(§3) Cytokine determination by ELISA. Cytokine levels in lung homogenates from treated and untreated mice were determined by cytokine-specific ELISA (R&D Systems, Inc. Space Import-Export srl, Milan, Italy) as described (21, 22)
C57BL/6 and Cftr^−/− mice were infected intranasally with live A. fumigatus conidia and treated with 200 μg/kg/i.p. Tα1 daily for 6 consecutive days beginning the day of the infection. […] The levels of IL-1β, IL-1α and IL-1RA in the BAL were measured by ELISA (pg/ml) at 7 days post-infection. The results shown represent pooled data from two experiments. *P<0.05; **P<0.01; ***P<0.001.

[2] = test system: A. fumigatus-infected C57BL/6 and Cftr−/− mice; assay: Lung inflammatory pathology and cell recruitment in Aspergillus-infected mice; settings: 200 μg/kg/i.p. daily for 6 days, 7 days post-infection
Experimental: as §1
Infection and treatments. Mice were anesthetized by i.p. injection of 2.5% avertin (Sigma Chemical Co, St. Louis, MO) before intranasal instillation of 2×10^7 A. fumigatus (Af293) resting conidia/20 μl saline. For histology, paraffin-embedded tissue were stained with Periodic acid-Schiff (PAS), and BAL fluid collection was done as described (21, 22). […]
Aspergillus-infected mice were treated with 200 μg/kg/i.p. daily of Tα1 for 6 consecutive days beginning the day of the infection. Mice were monitored for lung inflammatory pathology and cell recruitment at 7 days post-infection. […] Differential cell count of mononuclear (MNC), polymorphonuclear (PMN) cells and eosinophils (EOS) was determined upon May Grunwald Giemsa staining. […]

[3] = test system: A. fumigatus-infected C57BL/6 and Cftr−/− mice; assay: Th cytokines in lungs and transcription factors in draining thoracic lymph nodes (ELISA or RT-PCR)
Experimental: as §1, §2
Reverse transcriptase-polymerase chain reaction (RT-PCR). Total RNA extraction and synthesis and PCR of cDNA were done on total lung cells as described (21, 22). Amplification efficiencies were validated and normalized against Gapdh. The thermal profile for SYBR Green real-time PCR was at 95° C. for 3 min, followed by 40 cycles of denaturation for 30 s at 95° C. and an annealing/extension step of 30 s at 60° C. Each data point was examined for integrity by analysis of the amplification plot. The mRNA-normalized data were expressed as relative mRNA in treated cells compared to that of unstimulated cells.
as §3
The inflammatory Th17 pathway is involved in CF lung inflammation (21, 22, 43) while the Th2 pathway is associated with CF fungal allergy (44). For the assessment of the effects of Tα1 on Th cell activation, levels of Th cytokines in the lungs and of the corresponding transcription factors in the draining thoracic lymph nodes have been measured in C57BL/6 and Cftr^−/− mice infected and treated with Tα1 as above. Tα1 decreased Th17 (decreased levels of IL-17A and of the Th17 transcription factor Rorc), Th2 (low IL-4 and Gata3) cell activation while promoting both Th1 (increased IFN-γ and Tbet) and Treg (increased IL-10 and Foxp3) cell activity. […] The cytokine levels were assessed in lung homogenates (by ELISA or RT-PCR) and the expression of the corresponding Th transcription factors (by RT-PCR) in the draining thoracic lymph nodes. The results shown represent pooled data from two experiments. n.d. not done. *P<0.05; **P<0.01; ***P<0.001.

[4] = either type of mice (C57BL/6, Cftr−/−)
[5] = draining thoracic lymph nodes, RT-PCR

## Ac-Ser-Asp-Ala-Ala-Val-Asp-Thr-Ser-Ser-Glu-Ile-Thr-Thr-Lys-Asp-Leu-Lys-Glu-Lys-Lys-Glu-Val-Val-Glu-Glu-Ala-Glu-Asn-O (Ac-SDAAVDTSSEITTKDLKEKKEVVEEAEN-OH; not fully specified; printed as Ac-Ser-Asp-Ala-Ala-Val-Asp-Thr-Ser-Ser-Glu-Ile-Thr-Thr-Lys-Asp-Leu-Lys-Glu-Lys-Lys-Glu-Val-Val-Glu-Glu-Ala-Glu-Asn-O; listed as Homo sapiens) [Tα1, naturally occurring polypeptide of 28 amino acid; supplied as purified sterile, lyophilized, acetylated polypeptide]
[1]
  levels of the inflammatory-blocking cytokine IL-1RA in the BAL: increased
[1]; [4]
  levels of IL-1α in the BAL: sharply decreased
  levels of IL-1β in the BAL: sharply decreased
[2]; C57/BL6 mice
  local inflammatory cell recruitment and lung pathology (lung and BAL): significantly decreased
[2]; Cftr−/− mice
  local inflammatory cell recruitment and lung pathology (lung and BAL): significantly decreased
[3]; [5]
  Foxp3 expression (Treg): increased
  Gata3 expression (Th2): low
  Tbet expression (Th1): increased
  Th17 transcription factor Rorc expression: decreased
[3]; lung homogenates
  IFN-γ level (Th1): increased
  IL-4 level (Th2): low
  IL-10 level (Treg): increased
[3]; lung homogenates, infected and Tα1-treated C57BL/6 and Cftr−/− mice
  IL-17A level (Th17): decreased
